In article PMC4854855 (EJNMMI Research, 2016):
Values joined by “and” are separate entries in the source; they are usually repeats but may differ in a detail not shown here. Equal values may be shown once. “Also recorded” adds a separate entry of the source. Values belong to the compound of their own block, whether it stands above or below them.

Legend:
[1] = Storage stability of labeling precursor; format: physicochemical; conditions: solid, stored at 4 °C
PSMA+ LNCaP tumor [2] = assay: Dynamic PET imaging in LNCaP tumor-bearing BALB/c nude mice; format: in vivo, mouse
Experimental: PET imaging experiments were carried out in LNCaP and PC3 tumor-bearing Balb/c nude mice (Charles River Laboratories, Quebec, Canada). Male Balb/c nude mice were housed under standard conditions with free access to standard food and tap water. LNCaP and PC3 cells (5 × 10^6 cells in 100 μL of PBS) were injected into the upper left flank of the mice (20–24 g). Before injecting LNCaP cells, the mice received a 1.0-mg/pellet containing testosterone in a 60-day release preparation (Innovative Research of America, Sarasota, FL, USA). The pellet was implanted subcutaneously into the upper right flank in order to provide a constant level of testosterone needed by the androgen receptor positive LNCaP cells. Tumors reached sizes of approximately 1 cm^3 which were suitable for all in vivo experiments. General anesthesia of tumor-bearing mice was induced with inhalation of isoflurane in 40 % oxygen/60 % nitrogen (gas flow = […]), and the mice were subsequently fixed in prone position. The body temperature was kept constant at 37 °C for the entire experiment. The mice were positioned in a prone position into the center of the field of view. A transmission scan for attenuation correction was not acquired. […] For blocking studies, the animals were pre-dosed with 300 μg of DCFPyL in 50 μL saline about 10 min prior to radiotracer injection. Data acquisition was performed over 60 min in a 3D list mode. The dynamic list mode data were sorted into sinograms with 53 time frames (10 × 2, 8 × 5, 6 × 10, 6 × 20, 8 × 60, 10 × 120, 5 × 300 s). The frames were reconstructed using maximum a posteriori (MAP) as reconstruction mode. The pixel size was 0.085 × 0.085 × 0.121 mm^3 (256 × 256 × 63), and the resolution in the center of the field of view was 1.8 mm. No correction for partial volume effects was applied. The image files were processed using the ROVER v 2.0.51 software (ABX GmbH, Radeberg, Germany). Masks defining 3D regions of interest (ROI) were set and the ROIs were defined by thresholding. Mean standardized uptake values [SUV]mean = (activity/mL tissue)/(injected activity/body weight), mL/g, were calculated for each ROI. Time-activity curves (TACs) were generated for the dynamic scans only. All semi-quantified PET data are presented as means ± SEM. Statistical difference for the blocking study was tested by unpaired Student’s t test and was considered significant for P < 0.05.

PSMA− PC3 cells = assay: Cell-specific internalization experiment in PC3 cells; format: cell-based; conditions: 60 min, 37 °C
Experimental: (§1) 10^5 LNCaP or PC3 cells were seeded in poly-D-lysine-coated 12-well plates 24–48 h before the assay so that cells could reach 95 % confluency. The medium was removed 1 h before the assay, and the cells were rinsed twice with PBS. After the addition of Krebs buffer (1 mL) to each well, the cells were incubated at 37 °C. […] Cellular uptake was stopped by removing incubation media from the cells and washing the wells twice with ice-cold PBS buffer (1 mL). Surface-bound radioactivity was removed from the cells through incubating the cells twice with 0.5 mL glycine-HCl in PBS (50 mM, pH 2.5) for 5 min at 37 °C. Cells were washed again with ice-cold PBS before the addition of radio-immunoprecipitation assay (RIPA) buffer (400 μL) to lyse the cells. Cells were returned into the incubator for 10 min, and cell lysates were collected for counting. Radioactivity of surface-bound and internalized fraction was measured in a WIZARD2 Automatic gamma counter (Perkin Elmer, Waltham, MA, USA). Total protein concentration in the samples was determined by the bicinchoninic acid method (BCA; Pierce, Thermo Scientific 23227) using bovine serum albumin (800, 600, 400, 300, 200, 100, 50 μg/mL, blank) as protein standard. Data are expressed as percent of total uptake per 1 mg protein (% of total uptake/mg protein).

PSMA+ LNCaP cells = assay: Cell-specific internalization experiment in LNCaP cells; format: cell-based
Experimental: as §1

[3] = Stability of the product in saline (quality control); format: physicochemical; conditions: up to 4 h
Experimental: Radio-TLC analysis on silica gel plates gave a Rf value of 0.6 in 95 % CH3CN/H2O (Additional file 1: Figure S4).
[^18F]fluoride. Radio-TLC analysis on silica gel plates gave a Rf value of 0.6 in 95 % CH3CN/H2O (Additional file 1: Figure S4), and the product was stable (>95 %) in saline of up to 4 h.

PSMA− PC3 tumor [4] = assay: Dynamic PET imaging in PC3 tumor-bearing BALB/c nude mice; format: in vivo, mouse; conditions: 60 min p.i.
Experimental: PET imaging experiments were carried out in LNCaP and PC3 tumor-bearing Balb/c nude mice (Charles River Laboratories, Quebec, Canada). Male Balb/c nude mice were housed under standard conditions with free access to standard food and tap water. LNCaP and PC3 cells (5 × 10^6 cells in 100 μL of PBS) were injected into the upper left flank of the mice (20–24 g). Before injecting LNCaP cells, the mice received a 1.0-mg/pellet containing testosterone in a 60-day release preparation (Innovative Research of America, Sarasota, FL, USA). The pellet was implanted subcutaneously into the upper right flank in order to provide a constant level of testosterone needed by the androgen receptor positive LNCaP cells. Tumors reached sizes of approximately 1 cm^3 which were suitable for all in vivo experiments. General anesthesia of tumor-bearing mice was induced with inhalation of isoflurane in 40 % oxygen/60 % nitrogen (gas flow = […]), and the mice were subsequently fixed in prone position. The body temperature was kept constant at 37 °C for the entire experiment. The mice were positioned in a prone position into the center of the field of view. A transmission scan for attenuation correction was not acquired. […] Mean standardized uptake values [SUV]mean = (activity/mL tissue)/(injected activity/body weight), mL/g, were calculated for each ROI. […] All semi-quantified PET data are presented as means ± SEM. […]

PSMA+ LNCaP tumor [5] = assay: Tracer kinetic analysis (reversible two-tissue compartmental model), LNCaP tumors; format: in vivo, mouse
Experimental: (§2) Tracer kinetic analysis was performed using a two-tissue compartmental model using dynamically acquired PET imaging data. Full details on tracer kinetic analysis are given in the Additional file 1. […] Tracer kinetic analysis was carried out with PET imaging data acquired dynamically from PSMA+ LNCaP and PSMA− PC3 tumor-bearing mice (see Fig. 7). Four kinetic parameters (K1, k2, k3, k4) describing the flow of the radiotracer from the blood to the tissue (K1) and from the tissue into the blood (k2), binding of the radiotracer to the tissue (k3) and dissociation from the tissue (k4), were calculated. The analysis was performed by fitting the measured TACs with a two-exponential model of the general form as described, e.g., by van den Hoff (Additional file 1: Figure S2). Tracer kinetic analysis was performed using a two-tissue compartmental model using dynamically acquired PET imaging data. A volume of interest (VOI) was defined for the tumor using the Rover software (ABX GmbH, Dresden, Germany) by applying a threshold of 50% SUVmax within an ellipsoid mask around the tumor on an image representing the average of the last 40 min of the acquisition (i.e. excluding the tracer uptake phase). Image derived input functions were obtained from regions around the heart, defined by the injected blood bolus visible in the first few time fames of the dynamic acquisitions, using a threshold of 75% of SUVmax in that region. Four kinetic parameters (K1, k2, k3, k4) and the fractional blood volume (fbv) which accounts for the non-zero vascular space within the tumor ROI, describe the model. The analysis was carried out by fitting the measured tumor time-activity curves (TACs) with a two-exponential model of the general form: The fit of equation [1] to the experimentally acquired tumor TACs was implemented in Matlab (The Mathworks, Inc., v. R2014b), utilizing a Nelder-Mead simplex direct search. The fit was governed by the minimization of the sum over all time points of square differences between the measured values and the model prediction (Figure S2).

[6] = Radiometabolite analysis / in vivo metabolic stability in BALB/c mice; set-up: species or system mouse
Experimental: Venous blood samples were collected at 5, 15, 30, and 60 min p.i. via the mouse tail vein and further processed. Blood cells were separated by centrifugation (13,000 rpm × 5 min). Precipitation of proteins in the supernatant was achieved by the addition of 2 volume parts of MeOH, and the samples were centrifuged again (13,000 rpm × 5 min). Fractions of blood cells, proteins, and plasma were measured in a Wizard gamma counter to determine radioactivity per sample. The clear plasma supernatant was injected onto a Shimadzu HPLC system.
The samples were analyzed using a Phenomenex Luna 10u C18 [2] 100 A, 250 × 4.6 mm column at a constant flow rate of 1 mL min^−1 and the following gradient with water/0.2 % TFA as solvent A and CH3CN as solvent B: 0–7.5 min 20 % B, 7.5–15 min gradient to 90 % B, 15–20 min 90 % B.

PSMA− PC3 tumor [7] = assay: Tracer kinetic analysis (reversible two-tissue compartmental model), PC3 tumors; format: in vivo, mouse
Experimental: as §2

[8] = LNCaP, two-tissue compartmental model

- storage time without significant decomposition [1]: at least 3 months
SMILES: CC(C)(C)OC(=O)CCC(NC(=O)NC(CCCCNC(=O)c1ccc([N+](C)(C)C)nc1)C(=O)OC(C)(C)C)C(=O)OC(C)(C)C (centres unmarked) [Compound 9]

SMILES: O=C(O)CC[C@H](NC(=O)N[C@@H](CCCCNC(=O)c1ccc(F)nc1)C(=O)O)C(=O)O [DCFPyL, reference compound]
- reduction of [18F]DCFPyL radioactivity uptake in LNCaP tumor upon pretreatment with DCFPyL (PSMA+ LNCaP tumor [2]; 60 min p.i., 300 μg DCFPyL before radiotracer): 80%

- SUV5min, radioactivity uptake in LNCaP tumors (PSMA+ LNCaP tumor [2]; 5 min p.i., dynamic PET): 0.95
- SUV60min, muscle as reference tissue (PSMA+ LNCaP tumor [2]; 60 min p.i.): 0.06
- SUV60min, radioactivity uptake in LNCaP tumor (control) (PSMA+ LNCaP tumor [2]; 60 min p.i., dynamic PET): 1.1 and 1.1 ± 0.1
- SUV60min, LNCaP tumor, blocked (PSMA+ LNCaP tumor [2]; 60 min p.i., pre-dosed with 300 μg nonradioactive DCFPyL): 0.22 and 0.2 ± 0.05
- stability of product in saline [3]: > 95%
- SUV60min, radioactivity uptake in PC3 tumors (PSMA− PC3 tumor [4]): 0.11 and 0.1
- k3 (binding of radiotracer to tissue) (PSMA+ LNCaP tumor [5]; [8]): 0.08 min⁻¹ and 0.082 min⁻¹
- radiometabolites in plasma (radio-HPLC) ([6]; over 60 min p.i.): no radiometabolites were detected
- k3 (binding of radiotracer to tissue) (PSMA− PC3 tumor [7]): 0.008
SMILES: O=C(O)CCC(NC(=O)NC(CCCCNC(=O)c1ccc([18F])nc1)C(=O)O)C(=O)O [[^18F]DCFPyL, (S)-2-[3-((S)-1-carboxy-5-[3-(6-fluoropyridine)carbonyl)amino)pentyl)ureido]-pentanedioic acid]
- radioactivity uptake, internalized fraction (PSMA− PC3 cells): 0.76 ± 0.05 % of total uptake/mg protein
- radioactivity uptake, membrane-bound fraction (PSMA− PC3 cells): 4.30 ± 0.40 % of total uptake/mg protein
- radioactivity uptake, internalized fraction (PSMA+ LNCaP cells; 60 min, 37 °C): 35.05 ± 0.69 % of total uptake/mg protein
- radioactivity uptake, membrane-bound fraction (PSMA+ LNCaP cells; 60 min, 37 °C): 45.47 ± 1.01 % of total uptake/mg protein
- fraction of internalized radioactivity (PSMA+ LNCaP cells; 60 min incubation): 44%
- coefficient k3/(k3 + k2), fraction entering the second compartment (PSMA+ LNCaP tumor [5]; LNCaP tumors): 0.314
- retention k3/k4 (PSMA+ LNCaP tumor [5]; LNCaP tumors): 20.5
- K1 (flow of radiotracer from blood to tissue) (PSMA+ LNCaP tumor [5]; [8]): 0.12 min⁻¹
- k2 (flow from tissue into blood) (PSMA+ LNCaP tumor [5]; [8]): 0.18 min⁻¹
- k4 (dissociation from tissue) (PSMA+ LNCaP tumor [5]; [8]): 0.004 min⁻¹
- radiometabolites in urine (radio-HPLC) ([6]; 60 min p.i.): contained only parent compound; also recorded: no radiometabolites were detected
- binding to plasma proteins (distribution in blood) ([6]; n = 3): low binding of the radiotracer to blood cells and plasma proteins; also recorded: only minimal binding to plasma proteins
- coefficient k3/(k3 + k2), fraction entering the second compartment (PSMA− PC3 tumor [7]): 0.058
- net delivery K1/k2 (PSMA− PC3 tumor [7]): 0.49
- retention k3/k4 (PSMA− PC3 tumor [7]): 0.13
